Measured values: patent US10499642B2, “Isoxazoline-substituted benzamides and analogues as insecticides” (SYNGENTA PARTICIPATIONS AG, priority 2015, dated 2019)
Where two headings read alike, the source gives them in different places.

Legend:
Format in all cases: in vivo
Thrips tabaci = Thrips tabaci (onion thrips) sunflower leaf disc test; settings: foliar, 144 h
Experimental: Thrips tabaci (Onion Thrips):
(§1) Sunflower leaf discs were placed on agar in 24-well microtiter plates and sprayed with aqueous test solutions prepared from 10′000 ppm DMSO stock solutions. After drying the leaf discs were infested with a thrips population of mixed ages. The samples were assessed for mortality 6 days after infestation.

Diabrotica Balteata = experiment: Diabrotica balteata (corn root worm) maize sprout test; settings: 96 h, read-out: effect in at least one of the two categories (mortality or growth inhibition)
Experimental: Diabrotica Balteata, (Corn Root Worm)
Maize sprouts, placed on an agar layer in 24-well microtiter plates were treated with aqueous test solutions prepared from 10′000 ppm DMSO stock solutions by spraying. After drying, the plates were infested with L2 larvae (6 to 10 per well). The samples were assessed for mortality and growth inhibition in comparison to untreated samples 4 days after infestation. The following compounds gave an effect of at least 80% in at least one of the two categories (mortality or growth inhibition) at an application rate of 200 ppm: […]

Spodoptera littoralis = Spodoptera littoralis (Egyptian cotton leaf worm) cotton leaf disc test; settings: foliar, 72 h, read-out: control (at least one of mortality, anti-feedant effect, and growth inhibition)
Experimental: Spodoptera littoralis (Egyptian Cotton Leaf Worm)
Cotton leaf discs were placed on agar in 24-well microtiter plates and sprayed with aqueous test solutions prepared from 10′000 ppm DMSO stock solutions. After drying the leaf discs were infested with five L1 larvae. The samples were assessed for mortality, anti-feedant effect, and growth inhibition in comparison to untreated samples 3 days after infestation. Control of Spodoptera littoralis by a test sample is when at least one of mortality, anti-feedant effect, and growth inhibition is higher than the untreated sample.

Tetranychus urticae = Tetranychus urticae (two-spotted spider mite) bean leaf disc test; settings: foliar, 192 h
Experimental: Tetranychus urticae (Two-Spotted Spider Mite):
as §1, with “Bean” for “Sunflower”, “discs” for “discs were placed”, “were” for “and”, “mite” for “thrips”, “on mixed population (mobile stages) 8” for “6”

Plutella xylostella = Plutella xylostella (diamond back moth) artificial diet test; settings: 120 h, read-out: effect in at least one of the two categories (mortality or growth inhibition)
Experimental: Plutella xylostella (Diamond Back Moth):
24-well microtiter plates with artificial diet were treated with aqueous test solutions prepared from 10′000 ppm DMSO stock solutions by pipetting. After drying, the plates were infested with L2 larvae (10 to 15 per well). The samples were assessed for mortality and growth inhibition in comparison to untreated samples 5 days after infestation. The following compounds gave an effect of at least 80% in at least one of the two categories (mortality or growth inhibition) at an application rate of 200 ppm: […]

Myzus persicae = Myzus persicae (green peach aphid) sunflower leaf disc test; settings: foliar, 144 h
Experimental: Myzus persicae (Green Peach Aphid):
Sunflower leaf discs were placed on agar in a 24-well microtiter plate and sprayed with test solutions at an application rate of 200 ppm. After drying, the leaf discs were infested with an aphid population of mixed ages. After an incubation period of 6 days after treatment, samples were checked for mortality. The following compounds gave at least 80% mortality of Myzus persicae: […]

CC1=NOC(NC(=O)c2ccc(C3=NO[C@@](c4cc(Cl)c(F)c(Cl)c4)(C(F)(F)F)C3)cc2C)C1 (stereo partly drawn) [Compound A009, 4-[(5S)-5-(3,5-dichloro-4-fluoro-phenyl)-5-(trifluoromethyl)-4H-isoxazol-3-yl]-2-methyl-N-(3-methyl-4,5-dihydroisoxazol-5-yl)benzamide]
≥ 80%: mortality at 200 ppm (Thrips tabaci) | percent effect (mortality or growth inhibition) at 200 ppm (Diabrotica Balteata) | percent control (mortality, anti-feedant effect or growth inhibition) at 200 ppm (Spodoptera littoralis) | mortality at 200 ppm (Tetranychus urticae) | percent effect (mortality or growth inhibition) at 200 ppm (Plutella xylostella) | mortality at 200 ppm (Myzus persicae)

Cc1cc(C2=NO[C@@](c3cc(Cl)c(Cl)c(Cl)c3)(C(F)(F)F)C2)ccc1C(=O)N(C=O)C1CC(Cl)=NO1 (stereo partly drawn) [Compound A010, N-(3-chloro-4,5-dihydroisoxazol-5-yl)-N-formyl-2-methyl-4-[(5S)-5-(3,4,5-trichlorophenyl)-5-(trifluoromethyl)-4H-isoxazol-3-yl]benzamide]
≥ 80%: mortality at 200 ppm (Thrips tabaci) | percent effect (mortality or growth inhibition) at 200 ppm (Diabrotica Balteata) | percent control (mortality, anti-feedant effect or growth inhibition) at 200 ppm (Spodoptera littoralis) | mortality at 200 ppm (Tetranychus urticae) | percent effect (mortality or growth inhibition) at 200 ppm (Plutella xylostella) | mortality at 200 ppm (Myzus persicae)

Cc1cc(C2=NO[C@@](c3cc(Cl)c(F)c(Cl)c3)(C(F)(F)F)C2)ccc1C(=O)N(C=O)C1CC(Cl)=NO1 (stereo partly drawn) [Compound A011, N-(3-chloro-4,5-dihydroisoxazol-5-yl)-4-[(5S)-5-(3,5-dichloro-4-fluoro-phenyl)-5-(trifluoromethyl)-4H-isoxazol-3-yl]-N-formyl-2-methyl-benzamide]
≥ 80%: mortality at 200 ppm (Thrips tabaci) | percent effect (mortality or growth inhibition) at 200 ppm (Diabrotica Balteata) | percent control (mortality, anti-feedant effect or growth inhibition) at 200 ppm (Spodoptera littoralis) | mortality at 200 ppm (Tetranychus urticae) | percent effect (mortality or growth inhibition) at 200 ppm (Plutella xylostella) | mortality at 200 ppm (Myzus persicae)

Cc1cc(C2=NO[C@@](c3cc(Cl)cc(C(F)(F)F)c3)(C(F)(F)F)C2)ccc1C(=O)N(C=O)C1CC(Cl)=NO1 (stereo partly drawn) [Compound A012, N-(3-chloro-4,5-dihydroisoxazol-5-yl)-4-[(5S)-5-[3-chloro-5-(trifluoromethyl)phenyl]-5-(trifluoromethyl)-4H-isoxazol-3-yl]-N-formyl-2-methyl-benzamide]
≥ 80%: mortality at 200 ppm (Thrips tabaci) | percent effect (mortality or growth inhibition) at 200 ppm (Diabrotica Balteata) | percent control (mortality, anti-feedant effect or growth inhibition) at 200 ppm (Spodoptera littoralis) | mortality at 200 ppm (Tetranychus urticae) | percent effect (mortality or growth inhibition) at 200 ppm (Plutella xylostella) | mortality at 200 ppm (Myzus persicae)

Cc1cc(C2=NO[C@@](c3cc(Cl)c(Cl)c(Cl)c3)(C(F)(F)F)C2)ccc1C(=O)NC1CC(Cl)=NO1 (stereo partly drawn) [Compound A013, N-(3-chloro-4,5-dihydroisoxazol-5-yl)-2-methyl-4-[(5S)-5-(3,4,5-trichlorophenyl)-5-(trifluoromethyl)-4H-isoxazol-3-yl]benzamide]
≥ 80%: mortality at 200 ppm (Thrips tabaci) | percent effect (mortality or growth inhibition) at 200 ppm (Diabrotica Balteata) | percent control (mortality, anti-feedant effect or growth inhibition) at 200 ppm (Spodoptera littoralis) | mortality at 200 ppm (Tetranychus urticae) | percent effect (mortality or growth inhibition) at 200 ppm (Plutella xylostella) | mortality at 200 ppm (Myzus persicae)

CC(=O)C1=NOC(N(C=O)C(=O)c2ccc(C3=NO[C@@](c4cc(Cl)c(F)c(Cl)c4)(C(F)(F)F)C3)cc2C)C1 (stereo partly drawn) [Compound A014, N-(3-acetyl-4,5-dihydroisoxazol-5-yl)-4-[(5S)-5-(3,5-dichloro-4-fluoro-phenyl)-5-(trifluoromethyl)-4H-isoxazol-3-yl]-N-formyl-2-methyl-benzamide]
≥ 80%: mortality at 200 ppm (Thrips tabaci) | percent effect (mortality or growth inhibition) at 200 ppm (Diabrotica Balteata) | percent control (mortality, anti-feedant effect or growth inhibition) at 200 ppm (Spodoptera littoralis) | mortality at 200 ppm (Tetranychus urticae) | percent effect (mortality or growth inhibition) at 200 ppm (Plutella xylostella) | mortality at 200 ppm (Myzus persicae)

CC(=O)C1=NOC(NC(=O)c2ccc(C3=NO[C@@](c4cc(Cl)c(F)c(Cl)c4)(C(F)(F)F)C3)cc2C)C1 (stereo partly drawn) [Compound A015, N-(3-acetyl-4,5-dihydroisoxazol-5-yl)-4-[(5S)-5-(3,5-dichloro-4-fluoro-phenyl)-5-(trifluoromethyl)-4H-isoxazol-3-yl]-2-methyl-benzamide]
≥ 80%: mortality at 200 ppm (Thrips tabaci) | percent effect (mortality or growth inhibition) at 200 ppm (Diabrotica Balteata) | percent control (mortality, anti-feedant effect or growth inhibition) at 200 ppm (Spodoptera littoralis) | mortality at 200 ppm (Tetranychus urticae) | percent effect (mortality or growth inhibition) at 200 ppm (Plutella xylostella) | mortality at 200 ppm (Myzus persicae)

Cc1cc(C2=NO[C@@](c3cc(Cl)cc(C(F)(F)F)c3)(C(F)(F)F)C2)ccc1C(=O)NC1CC(Cl)=NO1 (stereo partly drawn) [Compound A016, N-(3-chloro-4,5-dihydroisoxazol-5-yl)-4-[(5S)-5-[3-chloro-5-(trifluoromethyl)phenyl]-5-(trifluoromethyl)-4H-isoxazol-3-yl]-2-methyl-benzamide]
≥ 80%: mortality at 200 ppm (Thrips tabaci) | percent effect (mortality or growth inhibition) at 200 ppm (Diabrotica Balteata) | percent control (mortality, anti-feedant effect or growth inhibition) at 200 ppm (Spodoptera littoralis) | mortality at 200 ppm (Tetranychus urticae) | percent effect (mortality or growth inhibition) at 200 ppm (Plutella xylostella) | mortality at 200 ppm (Myzus persicae)

O=CN(C(=O)c1ccc(C2=NO[C@@](c3cc(Cl)c(Cl)c(Cl)c3)(C(F)(F)F)C2)cc1Cl)C1CC(Cl)=NO1 (stereo partly drawn) [Compound A017, 2-chloro-N-(3-chloro-4,5-dihydroisoxazol-5-yl)-N-formyl-4-[(5S)-5-(3,4,5-trichlorophenyl)-5-(trifluoromethyl)-4H-isoxazol-3-yl]benzamide]
≥ 80%: mortality at 200 ppm (Thrips tabaci) | percent effect (mortality or growth inhibition) at 200 ppm (Diabrotica Balteata) | percent control (mortality, anti-feedant effect or growth inhibition) at 200 ppm (Spodoptera littoralis) | mortality at 200 ppm (Tetranychus urticae) | percent effect (mortality or growth inhibition) at 200 ppm (Plutella xylostella) | mortality at 200 ppm (Myzus persicae)

O=C(NC1CC(Cl)=NO1)c1ccc(C2=NO[C@@](c3cc(Cl)c(Cl)c(Cl)c3)(C(F)(F)F)C2)cc1Cl (stereo partly drawn) [Compound A018, 2-chloro-N-(3-chloro-4,5-dihydroisoxazol-5-yl)-4-[(5S)-5-(3,4,5-trichlorophenyl)-5-(trifluoromethyl)-4H-isoxazol-3-yl]benzamide]
≥ 80%: mortality at 200 ppm (Thrips tabaci) | percent effect (mortality or growth inhibition) at 200 ppm (Diabrotica Balteata) | percent control (mortality, anti-feedant effect or growth inhibition) at 200 ppm (Spodoptera littoralis) | mortality at 200 ppm (Tetranychus urticae) | percent effect (mortality or growth inhibition) at 200 ppm (Plutella xylostella) | mortality at 200 ppm (Myzus persicae)

Cc1cc(C2=NO[C@@](c3cc(Br)cc(C(F)(F)F)c3)(C(F)(F)F)C2)ccc1C(=O)NC1CC(Cl)=NO1 (stereo partly drawn) [Compound A021, 4-[(5S)-5-[3-bromo-5-(trifluoromethyl)phenyl]-5-(trifluoromethyl)-4H-isoxazol-3-yl]-N-(3-chloro-4,5-dihydroisoxazol-5-yl)-2-methyl-benzamide]
≥ 80%: mortality at 200 ppm (Thrips tabaci; application rate 200 ppm, sunflower leaf discs, population of mixed ages, 6 days after infestation, read-out: mortality) | percent effect (mortality or growth inhibition) at 200 ppm (Diabrotica Balteata; application rate 200 ppm, maize sprouts, L2 larvae, 4 days after infestation) | percent control (mortality, anti-feedant effect or growth inhibition) at 200 ppm (Spodoptera littoralis; application rate 200 ppm, cotton leaf discs, L1 larvae, 3 days after infestation) | mortality at 200 ppm (Tetranychus urticae; application rate 200 ppm, bean leaf discs, mixed population (mobile stages), 8 days after infestation, read-out: mortality) | percent effect (mortality or growth inhibition) at 200 ppm (Plutella xylostella; application rate 200 ppm, artificial diet, L2 larvae, 5 days after infestation) | mortality at 200 ppm (Myzus persicae; application rate 200 ppm, sunflower leaf discs, population of mixed ages, 6 days after treatment, read-out: mortality)

CCC1=NOC(N(C=O)C(=O)c2ccc(C3=NO[C@@](c4cc(Cl)c(F)c(Cl)c4)(C(F)(F)F)C3)cc2C)C1 (stereo partly drawn) [Compound A022, 4-[(5S)-5-(3,5-dichloro-4-fluoro-phenyl)-5-(trifluoromethyl)-4H-isoxazol-3-yl]-N-(3-ethyl-4,5-dihydroisoxazol-5-yl)-N-formyl-2-methyl-benzamide]
≥ 80%: mortality at 200 ppm (Thrips tabaci) | percent effect (mortality or growth inhibition) at 200 ppm (Diabrotica Balteata) | percent control (mortality, anti-feedant effect or growth inhibition) at 200 ppm (Spodoptera littoralis) | mortality at 200 ppm (Tetranychus urticae) | percent effect (mortality or growth inhibition) at 200 ppm (Plutella xylostella) | mortality at 200 ppm (Myzus persicae)
